This is an account of results in patent publication US10668122B2, “Extract of Toona sinensis from supercritical fluid extraction for treating diabetes and metabolic disease, the preparation method and the use thereof” (Metal Industries Research & Development Centre, priority 2009, dated 2020).

Marks after values point to notes of the source that are not given here.

One series relates to 3T3-L1 adipocytes. Nature of the series: In vitro model for anti-diabetic effect: 24-hour glucose consumption from culture medium of 3T3-L1 adipocytes. Type of series: cell-based. Conditions: starting glucose 300 mg/dL. As to the method:
Adipose tissue is one of the major sites of postprandial glucose uptake (Watson et al., 2007). To speed up the screening of novel anti-diabetic candidate materials from natural products, an in vitro model was established by comparing the 24-hour glucose consumption from the culture medium of 3T3-L1 adipocytes.
The same amount (5×10^5 cells) of 3T3-L1 preadipocytes (BCRC #60159; Bioresource Collection and Research Center, Taiwan) was seeded and cultured in normal glucose (100 mg/dL) DMEM supplemented with 10% FBS, 100 U/mL of penicillin, and 100 μg/mL of streptomycin in a humidified atmosphere of 95% air and 5% CO2 at 37° C. When the cell density reached 100% confluence, 3T3-L1 preadipocytes were induced to differentiate by treating the culture with 450 mg/dL D-glucose, 0.32 μM insulin, 0.5 mM 3-isobutyl-1-methylxanthine and 1 μM dexamethasone for two days. Then, the culture medium of the differentiated adipocytes was changed to DMEM containing 300 mg/dL D-glucose with or without the administration of TSL extracts. After 24 hours, the anti-diabetic activity was determined by measuring the medium glucose concentration using a Roche Cobas Integra 400 Chemistry Analyzer (Roche Diagnostics, Taipei, Taiwan). The coefficient of variation (CV) of the analyzer was 0.62-0.92% within-run and 1.1-1.2% between days. To confirm whether the in vitro model was sufficient to measure the glucose-lowering effect, insulin and rosiglitazone were used as positive controls.
The methods of in vitro model for determination of anti-diabetic effect are the same as the contents described in EXAMPLE 3. To obtain the high to mid-high polar components of TSL, three different extraction methods were used to produce the following extracts, which were previously reported (Liao et al., 2007; Hsieh et al., 2005; Yang et al., 2003). TSLs were (i) extracted by reverse-osmosis of water (1:4 w/v) by boiling for 30 min and then cooling down without further boiling for two hours at room temperature (Liao et al., 2007); (ii) extracted by soaking in 100° C. boiled water (1:10 w/v) three times, each time for 30 min (Hsieh et al., 2005); and (iii) extracted by boiling in 50% v/v alcohol/water for three hours (Yang et al., 2003). Next, the leaves were removed and the remaining liquids were filtered through filter paper (Advantec, Tokyo, Japan). Afterward, the filtrated solutions were concentrated using an evaporator (rotary vacuum evaporator, vv2000; Heidolph, Schwabach, Germany) under reduced pressure and three crude extracts were obtained, which were named TS-WB (i), TS-WS (ii), and TS-E (iii); the yield of each extract was 6.03%, 5.13%, and 8.36%, respectively.

Series [1] has as its system type 2 diabetic mouse model. The series can be described thus: Anti-diabetic effect in vivo, type 2 diabetic mouse model (high-fat diet plus STZ injection). To be noted: DM + rosiglitazone 150 μg/kg/day, mean ± SD. Details: species or system C57BL/6J mice. As to the method:
Eight-week-old male C57BL/6J mice were obtained from BioLASCO Technology (Charles River Taiwan Ltd.). All of the mice received standard animal care under supervision of the Institutional Animal Care and Use Committee of Kaohsiung Medical University, Taiwan. The mice were caged in an air-conditioned animal facility at 23° C. on a 12-h light/dark cycle and were maintained with free access to water and food. Animals were fed either a normal chow diet consisting (as a percentage of total kcal) of 11% fat, 65% carbohydrate, and 24% protein (Maintenance diet 1320, Altromin Spezialfutter GmbH & Co. KG, Germany) or a high-fat diet consisting of 45% fat, 35% carbohydrate, and 20% protein (D12451, Research Diets, Inc., New Brunswick, N.J., USA). After two weeks on either diet, mice were divided into four groups: (i) control (n=7); (ii) high-fat-diet mice with STZ injection (DM; n=5); (iii) high-fat-diet mice with STZ injection plus TS-SCF treatment (DM+TS-SCF; n=6); and (iv) high-fat-diet mice with STZ injection plus rosiglitazone treatment (DM+Rosig; n=4). The mice in groups ii-iv were injected with STZ (45 mg/kg), and both STZ-injected and non-injected animals were kept on their original diets (chow or high-fat) for the duration of the study. TS-SCF (150 mg/kg/day) and rosiglitazone (150 μg/kg/day) treatments via gastric gavage were begun two days after the STZ injection.
Throughout the experiment, body weight and blood glucose from the tail tip were monitored weekly. Blood glucose was detected by the ACCU-CHEK blood glucose meter (Roche Diagnostics, Taipei, Taiwan). Animals were sacrificed after eight weeks of STZ injection and were euthanized by intraperitoneal injection with the anesthetic Zoletil (10 mg/kg) (Virbac, Carros, France). Blood samples were collected from the heart at the time of sacrifice for the measurement of biochemistry data using a Roche Cobas Integra 400 Chemistry Analyzer (Roche Diagnostics, Taipei, Taiwan).
Insulin from plasma were detected by ELISA kits (Crystal Chem, Inc. Downers Grove, USA). The homeostasis model assessment of insulin resistance (HOMA-IR) was calculated using the following formula: fasting blood glucose (mg/dL)×fasting insulin (μU/mL)/405.

[2] abbreviates: insulin 3.2×10^−7 to 3.2×10^−5 M.

Consider insulin, for which, in the series with 3T3-L1 adipocytes (setting [2]), the “decrease of the glucose concentration in the media” value was in the range of 46 to 57 mg/dL and the “percentage of glucose consumption” value is 15-18%.

`CN(CCOc1ccc(CC2SC(=O)NC2=O)cc1)c1ccccn1` (centres unmarked) [rosiglitazone]: the Fasting glucose in series [1] (at sacrifice eight weeks after STZ) is 205.00 ± 84.87^b mg/dL. In series [1], the Body weight gain is 8.10 ± 1.95 g, the HDL-C turned out to be 126.03 ± 32.17 mg/dL, the HOMA-IR is listed as 14.29 ± 4.60^b and the “Insulin (fasting plasma)” value was 0.98 ± 0.77 ng/mL. For the same compound, in series [1], the LDL-C came out at 9.81 ± 8.29 mg/dL, the “T-CHO (total cholesterol)” value is listed as 137.65 ± 32.62 mg/dL and the “Triglycerol (plasma)” value is listed as 64.94 ± 4.82^d mg/dL. In addition, in series [1] (plasma), the ALT came out at 62.00 ± 27.00 U/L and the Creatinine is reported as 0.54 ± 0.18^e mg/dL. In the series on 3T3-L1 adipocytes (rosiglitazone 12.5 to 50 μg/mL), the “decrease of the glucose concentration in the media” value lay within 50 to 80 mg/dL and the “percentage of glucose consumption” value is 16-27%.
